Results taken from patent publication US6140120A, “Regulated transcription of targeted genes and other biological events” (Board of Trustees of Leland Stanford Jr. University, priority 1998, dated 2000).
Entries after “also recorded” stand apart in the source; their conditions may differ. Like-named read-outs stand apart in the source and are kept apart here. Values belong to the molecule of their own block, whether it stands above or below them.

Experiments:
cell culture = experiment: Toxicity in cell culture; type: cell-based
[1] = test system: myristoylated chimeric CD3/FKBP12 (MZF3E) receptor; experiment: NFAT-SEAP reporter through myristoylated chimeric CD3/FKBP12 (MZF3E) receptor; type: cell-based, human
Excerpt: In an illustrative case, this was accomplished by creating an intracellular receptor comprised of a small fragment of Src sufficient for posttranslational myristoylation (M), the cytoplasmic tail of zeta (Z; a component of the […] was also used), three consecutive FKBP12s (F3) and a flu epitope tag (E). Upon expressing the construct MZF3E (FIG. 18) in human (Jurkat) T cells, we confirmed that the encoded chimeric protein underwent FK1012-mediated oligomerization. The attendant aggregation of the zeta chains led to signaling via the endogenous TCR-signaling pathway (FIG. 15), as evidenced by secretion of alkaline phosphatase (SEAP) in response to an FK1012 (EC50 =50 nM). The promoter of the SEAP reporter gene was constructed to be transcriptionally activated by nuclear factor of activated T cells (NFAT), which is assembled in the nucleus following TCR-signaling.
Specifically, 5 μg of the eukaryotic expression vector, pBJ5, containing a myristoylated chimeric receptor was co-transfected with 4 μg NFAT-SX. MZE, MZF1E, MZF2E and MZF3E contain 0,1, 2, or 3 copies of FKBP12, respectively, downstream of a myristoylated CD3 cytoplasmic domain (see FIG. 2). As a control, 5 μg of pBJ5 was used in a parallel transfection. After 24 hours, aliquots of each transfection containing approximately 10^5 cells were incubated with log dilutions of the drug, FK1012B, as indicated. As a positive control and to control for transfection efficiency, ionomycin (1 μm) and PMA (25 ng/ml) were added to aliquots from each transfection. After an additional 12 hour incubation, the supernatants were assayed for alkaline phosphatase activity and these activities were expressed relative to that of the positive control samples. […] Compare FIGS. 7 and 8.

[2] = test system: TAC/TAC/Z (TTZ) chimeric receptor; IL-2 enhancer/NFAT reporter in TAg Jurkat cells; experiment: SEAP reporter induction through chimeric receptor TAC/TAC/Z (TTZ); type: cell-based, human; details: 1 ng/ml FK506
Description: As a positive control and to control for transfection efficiency, ionomycin (1 μm) and PMA (25 ng/ml) were added to aliquots from each transfection.

[3] = test system: chimeric FKBP12/CD3 (1FK3) receptor; experiment: NFAT-SEAP reporter through chimeric FKBP12/CD3 (1FK3) receptor; type: cell-based, human; details: 2 ng/ml FK506; FK1012A-stimulated
Description: 5 μg of the eukaryotic expression vector, pBJ5, (based on pCDL-SR with a polylinker inserted between the 16S splice site and the poly A site), containing the chimeric receptor (1FK3), was co-transfected with 4 μg of the NFAT-inducible secreted alkaline phosphatase reporter plasmid, NFAT-SX. As a control, 5 μg of pBJ5 was used, instead of 1FK3/pBJ5, in a parallel transfection. After 24 hours, aliquots of each transfection containing approximately 10^5 cells were incubated with log dilutions of the drug, FK1012A, as indicated. As a positive control and to control for transfection efficiency, ionomycin (1 μm) and PMA (25 ng/ml) were added to aliquots from each transfection. After an additional 14 hour incubation, the supernatants were assayed for alkaline phosphatase activity and these activities were expressed relative to that of the positive control samples.

calcineurin = details: complex with cyclophilin or FKBP12; cited from earlier work
[4] = test system: MZF3E chimera in Jurkat T cells; experiment: Co-immunoprecipitation of MZF3Eflu with MZF3Eflag (induced dimerization); type: cell-based, human; details: 1 μM
MZF1Eflu and MZF1Eflag = experiment: Co-immunoprecipitation of FKBP monomer constructs MZF1E; type: cell-based, human
[5] = test system: T cell receptor zeta chain / MZF3E in Jurkat cells; experiment: Recruitment of kinase activity to zeta-chain (in vitro kinase assay after immunoprecipitation) and tyrosine phosphorylation; type: cell-based, human; details: Jurkat cells stably transfected with MZF3E
Excerpt: FK1012-induced protein-tyrosine phosphorylation. The intracellular domains of the TCR, CD3 and zeta-chains interact with cytoplasmic protein tyrosine kinases following antigen stimulation. Specific members of the Src family (lck and/or fyn) phosphorylate one or more tyrosine residues of activation motifs within these intracellular domains (tyrosine activation motif, TAM). The tyrosine kinase ZAP-70 is recruited (via its two SH2 domains) to the tyrosine phosphorylated T-cell-receptor, activated, and is likely to be involved in the further downstream activation of phospholipase C. […] Tyrosine phosphorylation after treatment of cells with either anti-CD3 MAb or FK1012 was detected using monoclonal alpha-phosphotyrosine antibodies. Whole cell lysates were analysed at varying times after stimulation. […] The pattern consisted of a major band of 70 kDa, probably ZAP-70, and minor bands of 120 kDa, 62 kDa, 55 kDa and 42 kDa.

FKBP12 = FKBP12 (Homo sapiens, UniProt P62942); experiment: Binding of FK1012s, stoichiometry and Kd; details: 2:1 binding stoichiometry
[6] = test system: calcineurin-mediated TCR signaling; experiment: Inhibition of calcineurin-mediated TCR signaling / immunosuppression; type: cell-based; details: listed as FK1012s
[7] = test system: Fas-FKBP12 fusion protein (MFF3E) in Jurkat T cells; experiment: Cell death/apoptosis through Fas-FKBP12 fusion MFF3E in Jurkat T cells; type: cell-based; details: human Jurkat T cells
Excerpt: FIG. 21B depicts Immunphilin-Fas antigen chirneras and results of transient expression experiments in Jurkat T cells stably transformed with large T-antigen. Myr: the myristylation sequence taken from pp60^c-src encoding residues 1-14 (Wilson et al, Mol & Cell Biol 9 4 (1989): 1536-44); FKBP: human FKBP12; CypC: murine cyclophilin C sequence encoding residues 36-212 (Freidman et al, Cell 66 4 (1991): 799-806); Fas: intracellular domain of human Fas antigen encoding residues 179-319 (Oehm et al, J Biol Chem 267 15 (1992): 10709-15). Cells were electroporated with a plasmid encoding a secreted alkaline phosphatase reporter gene under the control of 3 tandem API promoters along with a six fold molar excess of the immunophilin fusion construct. After 24 h the cells were stimulated with PMA (50 ng/mL), which stimulates the synthesis of the reporter gene, and (CsA)2. At 48 h the cells were assayed for reporter gene activity. Western blots were performed at 24 h using anti-HA epitope antibodies.
A chimeric cDNA has been constructed consisting of three FKBP12 domains fused to the cytoplasmic signaling domain of the Fas antigen (FIG. 20). […] Since the stable transfectants represent a homogeneous population of cells, they have been used to ascertain that death is due to apoptosis rather than necrosis (membrane blebbing, nucleosomal DNA fragmentation). […]

[8] = test system: FKBP12-Fas antigen chimera in D10 T cells; experiment: Apoptosis through FKBP12-Fas chimera in D10 T cells; type: cell-based; details: murine D10 T cells
Excerpt: A chimeric cDNA has been constructed consisting of three FKBP12 domains fused to the cytoplasmic signaling domain of the Fas antigen (FIG. 20). […] Since the stable transfectants represent a homogeneous population of cells, they have been used to ascertain that death is due to apoptosis rather than necrosis (membrane blebbing, nucleosomal DNA fragmentation). However, the transient transfection protocol requires much less work and has therefore been used as an initial assay system, as described below.

ΔMFF3E = experiment: Apoptosis with non-myristoylated construct ΔMFF3E; type: cell-based; details: ΔMFF3E vs. myristoylated construct

FKBP12, sequence (P62942 whole entry): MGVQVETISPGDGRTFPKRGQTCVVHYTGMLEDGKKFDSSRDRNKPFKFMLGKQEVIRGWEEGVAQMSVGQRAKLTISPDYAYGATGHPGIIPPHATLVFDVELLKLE

Molecule: CO[C@H]1C[C@@H](C)C/C(C)=C/[C@@H](CCOC(=O)NCc2ccccc2)C(=O)C[C@H](O)[C@@H](C)[C@@H](/C(C)=C/[C@@H]2CC[C@@H](O)[C@H](OC)C2)OC(=O)[C@@H]2CCCCN2C(=O)C(=O)[C@]2(O)O[C@H]1[C@@H](OC)C[C@H]2C [FK506-M]
toxicity of monomeric ligand (cell culture; in words): nontoxic | termination of FK1012-induced signaling ([1]; monomeric ligand): FK1012-induced signaling can be terminated

Molecule: C=CC[C@@H]1/C=C(\C)C[C@H](C)C[C@H](OC)[C@H]2O[C@@](O)(C(=O)C(=O)N3CCCC[C@H]3C(=O)O[C@H](/C(C)=C/[C@@H]3CC[C@@H](O)[C@H](OC)C3)[C@H](C)[C@@H](O)CC1=O)[C@H](C)C[C@@H]2OC [FK506]
response of NFAT reporter on addition of FK506 [2]: dropped all activity due to NFAT to background levels | stimulation of NFAT reporter on addition of FK506 [3]: dropped all stimulations to background levels | stimulation of NFAT reporter on addition of FK506 ([1]; 1 ng/ml FK506, FK1012B-stimulated): dropped all stimulations to near background levels | binding to / inactivation of calcineurin as immunophilin complex (calcineurin): binds with high affinity to calcineurin

Molecule: CO[C@H]1C[C@@H](C)C/C(C)=C/[C@@H](CCOC(=O)NCc2ccc(CNC(=O)OCC[C@@H]3/C=C(\C)C[C@H](C)C[C@H](OC)[C@H]4O[C@@](O)(C(=O)C(=O)N5CCCC[C@H]5C(=O)O[C@H](/C(C)=C/[C@@H]5CC[C@@H](O)[C@H](OC)C5)[C@H](C)[C@@H](O)CC3=O)[C@H](C)C[C@@H]4OC)cc2)C(=O)C[C@H](O)[C@@H](C)[C@@H](/C(C)=C/[C@@H]2CC[C@@H](O)[C@H](OC)C2)OC(=O)[C@@H]2CCCCN2C(=O)C(=O)[C@]2(O)O[C@H]1[C@@H](OC)C[C@H]2C [FK1012A]
coimmunoprecipitation of MZF3Eflu with MZF3Eflag [4]: interacts with MZF3Eflu and is coimmunoprecipitated with MZF3Eflag | dimerization of FKBP monomer constructs (MZF1Eflu and MZF1Eflag): also dimerized | recruitment of kinase activity to the zeta-chain [5]: recruitment of kinase activity to the zeta-chain

Kd (FKBP12; read-out: Kd (1)): 100 pM | Kd (FKBP12; read-out: Kd (2)): 800 pM | EC50 ([1]; Jurkat T cells expressing MZF3E, read-out: EC50, secretion of alkaline phosphatase (SEAP)): 50000 pM
Molecule: FK1012
inhibition of signaling [6]: does not inhibit signaling pathways; also recorded: do not inhibit calcineurin-mediated TCR signaling | toxicity (cell culture; FK1012s: up to 0.1 mM in cell culture): nor toxic (up to 0.1 mM in cell culture) | induction of cell death / apoptosis [7]: FK1012-dependent apoptosis; also recorded: cell death of the Jurkat T-cell line | induction of apoptosis [8]: FK1012-dependent apoptosis | potency of mutated construct as inducer of FK1012-dependent apoptosis (ΔMFF3E): equally potent
